The subject of one experiment is rats. Briefly: Ischemic-hypoxic brain damage (bilateral carotid occlusion + 10% O2): AAPA, rotarod, beam walking. The experiment is classed as in vivo, rat. The method, then: The effect of compound from example 9 on cognitive coordination and motor activity was examined in stroke model of ischemic brain injury. Ischemic-hypoxic damage was induced by bilateral occlusion of common carotid arteries and subsequent confinement in box with 10% O2 (for 30 min). The animals were injected i.p. by compound from example 9 dissolved in β-cyclodextrine (1 mg/kg) immediately after their removal from box. Ischemic group was injected only by β-cyclodextrine in the same time and volume. Surgery was conducted under anesthesia (xylazine 6 mg/kg, thiopental 50 mg/kg).
It is known that ischemia-hypoxia causes neuronal necrosis in specifically vulnerable areas of brain. The two-vessel occlusion/hypoxic model gives rise to stroke changes, for example in cells of the hippocampus, caudatoputamen and neocortex. As such structures are intimately involved in memory, cognitive and motor processes, ischemia/hypoxia leads to impairment in these functions. Used animal model of stroke damage dealing with ischemia/hypoxia has enabled the identification of deleterious phenomena that may be corrected or neutralized by drugs.
The effect of ischemic was evaluated a week after surgical procedures in AAPA task, beam walking and rotarod. Ischemia led to deterioration of motor activity (rotarod and beam walking) and deficit in cognitive coordination.
Background: In the rotarod test animals must keep their balance on a rotating rod.

Another experiment deals with Long-Evans rats. Briefly: Scopolamine-induced cognitive deficit in AAPA (model of Alzheimer disease). The experiment is classed as in vivo, rat. Conditions: Example 9 1 ml/kg of 1.0 mg/ml i.p. + scopolamine 2.0 mg/kg. The protocol:
The effect of the compound from example 9 on an animal model of age-related cognitive decline and neurodegenerative disorders (including Alzheimer disease) is documented. In the present experiment the effect of central muscarinic blockade by systemic administration of scopolamine at dose 2.0 mg/kg on both reinforced retention of the AAPA and re-acquisition of the AAPA in a new environment was investigated (by the standard method described previously; see Vales and Stuchlik, 2005).
The compound from example 9 was dissolved in β-cyclodextrine (at a concentration of 1.0 mg/ml). Animals were injected intraperitoneally with 1 ml/kg b.w. of this solution or with 1 ml/kg b.w. of β-cyclodextrine. All animals thus received the same volume of liquid per body weight in each injection. Injections were delivered 40 min prior to behavioural testing). Scopolamine hydrobromide (scopolamine; Sigma Aldrich) was dissolved in saline (0.9% NaCl, 2.0 mg/ml). Animals were injected intraperitoneally with 1 ml/kg b.w. of this solution or with 1 ml/kg b.w. of saline. All animals thus received the same volume of liquid per body weight in each injection. Injections were delivered 20 min prior to behavioural testing. Adult male hooded rats of the Long-Evans strain (3 months old; weighing 300-400g) was used.
The active allothetic place avoidance apparatus is described in example 28. […]

Setting [1] is: 1 mg/kg i.p. immediately after hypoxia, tested a week later.

Turning to `CC(=O)[C@H]1CC[C@H]2[C@@H]3CC[C@@H]4C[C@H](OC(=O)[C@@H](N)CCC(=O)O)CC[C@]4(C)[C@H]3CC[C@]12C` [Example 9, 20-Oxo-5β-pregnan-3α-yl L-glutamyl 1-ester], the “total path in AAPA after ischemia/hypoxia” value in the experiment with rats (1 mg/kg i.p.) is “None of the experimental condition affected locomotion in AAPA”. Moreover, in the experiment on rats (setting [1]), the “cognitive deficit in AAPA (entrances) after ischemia/hypoxia” value is “improves cognitive deficit induced by ischemic/hypoxic procedures in AAPA task”; the “motor changes in rotarod and beam walking after ischemia/hypoxia” value is “has no effect on disturbance of motor changes in rotarod and beam walking test”. In the experiment on Long-Evans rats, the “scopolamine-induced deficit in AAPA (number of entrances)” value is “tends to be decreased”.
